Test results reported in patent publication US20250262192A1, “PROGNOSTIC PATHWAYS FOR HIGH RISK SEPSIS PATIENTS” (KONINKLIJKE PHILIPS N.V., priority 2021, published 2025).
Values joined by “and” are separate entries in the source; they are usually repeats but may differ in a detail not shown here. Identical values can stand only once.

What was measured:
[1] = tested on: TGFbeta cellular signaling pathway; experiment: THP-1 cells cultured 24 hrs with LPS, then DHT or AR inhibitor (FIG. 35, Table 7); pathway analysis; type: cell-based
Procedure: (§1) FIG. 35 Schematic overview of AR inhibitor experiment. Depicts the experimental setup to determine if AR inhibitors can be used to mitigate the effect of LPS on monocytes (THP-1 cells). […] In a parallel experiment, THP-1 cells are first cultured for 24 hours with LPS, after which the medium is changed and the cells are cultured with one of ARCC-4, ARD-266, A-458 and bicalutamide.
(§2) FIG. 35 describes the experimental set-up used. […] In a parallel experiment, THP-1 cells are first cultured for 24 hours with LPS, after which the medium is changed and the cells are cultured with one of ARCC-4, ARD-266, A-458 and bicalutamide.
As expected the remaining AR inhibitors were not able to mitigate the effect of LPS on TGFbeta cellular signaling pathway activity.
AR and TGFbeta pathways are functional in monocytic cells (Table 7).

TGFbeta pathway [2] = experiment: PBMCs of sepsis patients treated in vitro 24 hours with inhibitors, pathway activity score; type: cell-based, human; design: scale not given here; settings: EXP 2, individual patient samples, Resatorvid 10 uM, D4-abiraterone 10 uM, A-485 100 nM, Galunisertib 10 uM
Procedure: (§3) PBMC samples from healthy volunteers and sepsis patients were obtained via Tissue solutions. Briefly, cryopreserved PBMCs were first washed with washing buffer (PBS/1% BSA/2 mM EDTA), centrifuged and pellet resuspended in culture medium (RPM11640 without phenol red+8.5% charcoal stripped FBS+1% Glx+1% p/s). 0.5·10^5-1·10^6 cells were seeded per well in 24 wells plate and rested for 1 hour before treatment experiment. 10 PBMC samples from healthy donors were used to; (1) measure the baseline pathway levels, (2) activate with LPS
(§4) Sepsis treatment model: PBMC derived from sepsis patients (n=20) were treated 24 hours with compounds, DMSO or combination of compounds. (PBMC from healthy and sepsis patients are originating from the same hospital to minimize bias in sample prep). After stimulation cells were harvested and RNA was extracted using the RNeasy mini kit (Qiagen, 74104). qPCR was performed using the Philips Research OncoSignal platform.
(§5) In total 18 PBMCs sepsis samples were treated for 24 hours with selected inhibitors (and combinations), 6 patient samples per experiment.

AR pathway [3] = experiment: as above; type: cell-based, human; design: AR Pathway activity scores of sepsis PBMC patients: scale not given here; settings: EXP 2, individual patient samples, Resatorvid 10 uM, D4-abiraterone 10 uM, A-485 100 nM, Galunisertib 10 uM
Procedure: as §3, §4, §5

[4] = tested on: AR cellular signaling pathway; experiment: THP-1 cells cultured 24 hrs with LPS, then DHT or AR inhibitor (FIG. 35, Table 7); pathway analysis; type: cell-based
Procedure: as §1, §2
All experimental conditions were subjected to cellular signaling pathways analysis.

TGFBeta pathway [5] = experiment: THP-1 cell line stimulated with LPS or DHT and inhibited with Bicalutamide or Enzalutamide (Table 9A); type: cell-based
Procedure: (§6) LPS is considered the main mediator of the sepsis symptoms. An in vitro experiment was designed where monocytes were stimulated with LPS and subsequently treated with a variety of inhibitors. […] 26 Aug.
(§7) After stimulation cells were harvested and RNA was extracted using the RNeasy mini kit (Qiagen, 74104). qPCR-based STP activity scores were calculated using the Philips Research OncoSignal platform (www.philips.com/oncosignal), as described herein.

AR pathway [6] = experiment: as above; type: cell-based
Procedure: as §6, §7

[7] = tested on: AR cellular signaling pathway; experiment: THP-1 sepsis prevention model, qPCR-based STP activity score; type: cell-based
[8] = tested on: TGFbeta cellular signaling pathway; experiment: as above; type: cell-based
TGFBeta pathway [9] = experiment: MOLT-4 lymphoid cell line stimulated with LPS or DHT and inhibited with Bicalutamide or Enzalutamide (Table 9B); type: cell-based
Procedure: (§8) MOLT-4 (ATCC CRL-1582) were cultured in RPMI1640 media, supplemented with 10% FBS, 1% glutamax and 1% pen strep at 37° C. 5% CO2.
as §7

AR pathway [10] = experiment: as above; type: cell-based; settings: stimulated 5 hours and subsequently inhibited
Procedure: as §8, §7

[11] = tested on: HH (Hedgehog) cellular signaling pathway; type: cell-based
Procedure: as §1, §2

[12] = tested on: ER cellular signaling pathway; type: cell-based
Procedure: as §1, §2

[13] = THP-1, 24 hours LPS, medium changed, then inhibitor
[14] = THP-1, DHT (25 nM) alone or + Bicalutamide (5 uM) or Enzalutamide (5 uM), stimulated 5 hours and subsequently inhibited
[15] = THP-1, LPS (50 ng/mL) alone or + Bicalutamide (5 uM) or Enzalutamide (5 uM), stimulated 5 hours and subsequently inhibited
[16] = 24 hrs 25 uM Bicalutamide or DMSO, then 24 hrs DHT
[17] = 24 hrs 25 uM Bicalutamide or DMSO, then 24 hrs LPS
[18] = 24 hrs 25 uM Bicalutamide, then 24 hrs PBS
[19] = DHT (25 nM) alone or + Bicalutamide (5 uM) or Enzalutamide (5 uM)

CNC(=O)Nc1ccc2c(c1)CC[C@@]21OC(=O)N(CC(=O)N(Cc2ccc(F)cc2)[C@@H](C)C(F)(F)F)C1=O [A-485]
LPS induced TGFbeta activity after addition of inhibitor (FIG. 39) [1, 13]: reduction of LPS induced TGFbeta activity
TGFbeta Pathway activity scores of sepsis PBMC patients (TGFbeta pathway [2]): 28 and 33 and 35
AR Pathway activity scores of sepsis PBMC patients (AR pathway [3]): 24 and 27 and 25
LPS induced AR activity after addition of inhibitor (FIG. 36) [4, 13]: reduction of AR activity

C[C@]12CC[C@H]3[C@@H](CCC4=CC(=O)CC[C@@]43C)[C@@H]1CC[C@@H]2O [Testosterone]
AR pathway activity, ligand stimulation ([4]; THP-1 cells): induced activity

TGFbeta: original ligand for the TGFbeta STP added to monocytic cells
TGFbeta pathway activity, ligand stimulation ([1]; monocytic cells (THP-1)): induced activity

CC(O)(CS(=O)(=O)c1ccc(F)cc1)C(=O)Nc1ccc(C#N)c(C(F)(F)F)c1 (stereo not drawn) [Bicalutamide]
TGFbeta STP activity (TGFBeta pathway [5]; [14]): 15.6 normalized scores
TGFbeta STP activity (TGFBeta pathway [5]; [15]): 34.6 normalized scores
AR STP activity (AR pathway [6]; [14]): 6.7 normalized scores
AR STP activity (AR pathway [6]; [15]): 20.2 normalized scores
Average AR STP score [7, 16]: 3.17 normalized scores
Average AR STP score [7, 17]: 12.93 normalized scores
Average AR STP score [7, 18]: 2.63 normalized scores
Average TGFbeta STP score [8, 16]: 1.04 normalized scores
Average TGFbeta STP score [8, 17]: 9.78 normalized scores
Average TGFbeta STP score [8, 18]: 1.25 normalized scores
TGFbeta STP activity (TGFBeta pathway [9]; MOLT-4, DHT (25 nM) alone or + Bicalutamide (5 uM) or Enzalutamide (5 uM), stimulated 5 hours and subsequently inhibited): 13.9 normalized scores
TGFbeta STP activity (TGFBeta pathway [9]; MOLT-4, LPS (50 ng/mL) alone or + Bicalutamide (5 uM) or Enzalutamide (5 uM), stimulated 5 hours and subsequently inhibited): 14.1 normalized scores
AR STP activity (AR pathway [10]; [19]): 7.4 normalized scores
AR STP activity (AR pathway [10]; LPS (50 ng/mL) alone or + Bicalutamide (5 uM) or Enzalutamide (5 uM)): 7.2 normalized scores

C[C@]12CCC(=O)C[C@@H]1CC[C@@H]1[C@@H]2CC[C@]2(C)[C@@H](O)CC[C@@H]12 [DHT, dihydrotestosterone]
TGFbeta signaling activity, effect of stimulus (FIG. 39) [1]: did not increase
TGFbeta STP activity (TGFBeta pathway [5]): 12.9 normalized scores
AR STP activity (AR pathway [6]): 8.7 normalized scores
HH cellular signaling pathway activity (FIG. 38) [11]: not substantially affected
ER cellular signaling pathway activity (FIG. 37) [12]: not substantially affected
Average AR STP score [7, 16]: 6.13 normalized scores
Average TGFbeta STP score [8, 16]: 1.27 normalized scores
TGFbeta STP activity (TGFBeta pathway [9]): 14.1 normalized scores
AR STP activity (AR pathway [10]; [19]): 7.5 normalized scores
AR cellular signaling pathway activity, effect of stimulus (FIG. 36) [4]: increase
